Source: US6939948B1, “GD2 peptide mimics” (Health Research, Inc., priority 2002, dated 2005)
No end group written: not given here.

Test system: anti-GD2 ganglioside mAb 3F8
Assay: Inhibition assay: inhibition of binding of anti-GD2 mAb 3F8 to GD2 ganglioside bearing melanoma cells
Conditions: GD2 (+) human melanoma cells
Protocol: Peptide mimics of GD2 ganglioside can be isolated by panning phage display peptide libraries with anti-GD2 ganglioside such as mAbs 3F8, 5F11, and KM666 that recognize different epitopes on GD2 ganglioside. Anti-GD2 ganglioside mAbs can be used to isolate phage that display antibody reactive peptides. After phage panning, the binding ability of isolated phage colonies to anti-GD2 ganglioside mAbs is tested with immunoscreening and further confirmed by ELISA. Anti-GD2 antibody reactive phage clone and the same phage without displaying peptides, can be utilized as a positive and a negative controls respectively in the immunoscreening and ELISA. In the positive phage clones, the DNA inserts that encode the antibody reactive peptides can be sequenced. Peptides can be synthesized based on the sequences of the DNA inserts. The synthesized peptides are tested in ELISA to determine their binding reactivity with corresponding anti-GD2 ganglioside mAbs. […] The synthetic peptides that inhibit or block the binding of anti-GD2 ganglioside mAbs to GD2 ganglioside can be tested as active immunotherapy candidates.
The synthesized peptides were tested with reverse ELISA and inhibition assay with mAb 3F8. […] Peptide J51 contains HLA-B7 and HLA-DRB1 binding motifs.

| Substance | inhibition of the binding of mAb 3F8 to GD2 ganglioside bearing melanoma cells |
| --- | --- |
| cJ51: cyclic peptide J51, which mimics the structure of GD2 ganglioside (DCFRGDPYQPKWRLC; also: cyclic, cyclising bond not given here) | inhibit the binding |
| DCFRGDPYQPKWRLC (J51 peptide mimic for GD2) [Peptide J51, GD2 peptide mimic from PVIII X15 library] | inhibited the binding |
